Assay results from patent US20170112789A1, “INTRAVENOUS BACLOFEN AND METHODS OF TREATMENT” (Allaysis, LLC, priority 2015, published 2017).

Tests used:
healthy adults = assay: Tolerability/safety (sedation, nystagmus, ataxia) in the dose escalation study (Example 4); assay type: in vivo, human; details: for subjects with asymptomatic nystagmus: 10 minute infusion, of twelve subjects
Description: (§1) Thirty-six healthy adults participated in the study.
(§2) The thirty-six subjects were enrolled in a randomized, open-label, cross over study to evaluate the safety profile and pharmacokinetics of oral and an investigational intravenous baclofen formulation at clinically relevant doses. Three cohorts of twelve subjects received single doses of baclofen: 7.5, 11.5 or 15 mg intravenously and 10, 15, or 20 mg taken orally with a 48 hour washout phase. The highest dosing cohort received an additional 15 mg extended (60 minute) infusion. Blood samples for baclofen pharmacokinetic analysis were collected pre-dose and at regular intervals over a 24 hour time period. Over this 24 hour period subjects were assessed for sedation, nystagmus and ataxia to evaluate clinical response. Maximum concentration (Cmax) and time to maximum concentration (Tmax) were determined by visual inspection. Noncompartmental pharmacokinetic analyses were used to estimate area under the curve (AUC), half life (t1/2), clearance (CL) and volume of distribution. Absolute bioavailability was calculated using dose normalized oral and intravenous AUCs. Dose proportionality was assessed using analysis of variance (ANOVA) and a power model. Bioequivalence was evaluated using Phoenix Software (Centara, Pharsight Corporation, Mountain View, Calif.).

[1] = cited from earlier work
[2] = Pharmacokinetics of oral and intravenous baclofen at clinically relevant doses, dose escalation crossover study (Example 4); assay type: in vivo, human; details: for Cmax / half-life / bioavailability: human, plasma
Description: as §1, §2

healthy human volunteers = assay: Tolerability of the intravenous formulation in the crossover study (Example 3); assay type: in vivo
Description: (§3) Twelve healthy human volunteers were recruited. The volunteers were medication free for 48 hours before, during, and 24 hours after the administration of the study drug.
(§4) The 12 volunteers participated in a randomized, open-label, 2-way crossover study to compare the pharmacokinetics and bioavailability of oral baclofen with an intravenous baclofen formulation. The oral formulation was a 10 mg baclofen tablet. A single intravenous dose of 5 mg was administered over 15 minutes, using the commercially available 2 mg/mL intrathecal baclofen formulation (Lioresal Intrathecal). Blood samples (6 mL) for the measurement of plasma concentrations of baclofen were collected in blood collection tubes containing K2 ethylenediaminetetraacetic acid at the following times: prior to dosing; at 5, 15, and 30 minutes; and at 1, 2, 4, 6, 8, 10, 12, and 24 hours after drug administration.

[3] = Pharmacokinetics and bioavailability of oral vs intravenous baclofen, randomized open-label 2-way crossover study (Example 3); assay type: in vivo, human; details: for Cmax: single dose
Description: as §3, §4
Study plasma samples were prepared by adding 50 μL of a 500 μg/mL levetiracetam solution (internal standard) to 250 μL of K2 ethylenediaminetetraacetic acid (EDTA) human plasma. Baclofen and the internal standard were extracted from plasma by precipitating the protein with methanol and drying it under nitrogen at approximately 40° C. The dried residues were reconstituted in 300 μL of a mobile phase consisting of 20 mM ammonium acetate-methanol (75:25) solution. After 1 minute of vortex mixing, the reconstituted sample solution was filtered and injected onto the high-performance liquid chromatograph-mass spectrometer system. Standard curve samples over a range of 20 to 400 ng/mL baclofen and quality control samples containing 30 (low), 80 (medium), and 240 ng/mL (high) baclofen were prepared and analyzed in triplicate along with the study samples. The assay was linear over the range 20-400 ng/mL with a lower limit of quantification of 20 ng/mL.
Baclofen concentration-time data were analyzed using a noncompartmental pharmacokinetic approach with Phoenix software (version 6.2; Pharsight Corporation, Mountain View, Calif.). The terminal rate constant (λz) was determined from the slope of the terminal log-linear portion of the plasma concentration-time curve, and the terminal half-life (t1/2) was calculated as In 2/(λz). Maximum plasma concentrations (Cmax) and time to maximum concentration (Tmax) were determined by direct observation of the data. The area under the concentration-time curve to the last nonzero plasma concentration (Clast) that was above half the lower limit of quantification (10 ng/mL) was calculated by the trapezoidal rule and reported as AUClast The area under the concentration-time curve extrapolated to infinity (AUC0-∞) was calculated as AUClast+(Clast/λz). Mean and standard deviation values for the parameters were also obtained using the descriptive statistics tool in Phoenix version 6.2. A paired t-test was used to determine if statistical differences existed in log normalized, dose-adjusted area under the curve between oral and intravenous arms.

[4] = iv, 7.5 mg, IV 10 min infusion 7.5 mg, mean
[5] = iv, 11.5 mg, IV 10 min infusion 11.5 mg, mean
[6] = iv, 15 mg, IV 10 min infusion 15 mg, mean
[7] = iv, 15 mg, IV 60 min infusion 15 mg, mean
[8] = human, plasma, 5 mg IV, mean ± SD
[9] = human, plasma, 10 mg oral, mean ± SD

In the case of `NCC(CC(=O)O)c1ccc(Cl)cc1` (racemic) [Baclofen, 4-amino-3-(4-chlorophenyl) butanoic acid], the “subjects with asymptomatic nystagmus” value (healthy adults; 7.5 mg) is reported as “two”, the “subjects with asymptomatic nystagmus” value (healthy adults; 11.5 mg) is reported as “six” and the occurrence of nystagmus (healthy adults; 15 mg 60 minute infusion) is reported as “not observed”. The “subjects with asymptomatic nystagmus” value (healthy adults; 15 mg) was “six”, the ataxia (healthy adults; after the 20 mg oral dose) was “one subject experienced mild transient ataxia” and the tolerability (healthy adults; all oral and IV doses) was “generally well tolerated”. The “sedation, changes from baseline” value (healthy adults; by route of administration or by dose) was “not statistically significant”, the adverse effects (healthy adults; following both oral and intravenous doses) was “Mild, self-limited adverse effects” and the solubility in water [1] was “slightly soluble in water”. The Cmax ration ([2]; 15 mg intravenous infusion over 10 minutes vs oral) was 263%, the Cmax ration ([2]; 15 mg intravenous infusion over 60 minutes vs oral) was 149% and the “dose proportionality of AUC” value ([2]; ANOVA and power model analysis) was “greater than proportional increase with dose”. For the same molecule, the “AUC(0-inf)” value ([2]; IV 10 min infusion 7.5 mg, mean) was 562 ng·h/mL, the “AUC(0-inf)” value ([2]; IV 10 min infusion 11.5 mg, mean) was 1186 ng·h/mL and the “AUC(0-inf)” value ([2]; IV 10 min infusion 15 mg, mean) was 1520 ng·h/mL. For the same molecule, the “AUC(0-inf)” value ([2]; IV 60 min infusion 15 mg, mean) was 1447 ng·h/mL, the “AUC(0-inf)” value ([2]; PO 10 mg, mean) was 714 ng·h/mL and the “AUC(0-inf)” value ([2]; PO 15 mg, mean) was 1201 ng·h/mL. For the same molecule, the “AUC(0-inf)” value ([2]; PO 20 mg, mean) was 1598 ng·h/mL, the “bioequivalence of oral and intravenous doses” value ([2]; based on AUC and Cmax) was “bioequivalent based on AUC, but not based on Cmax” and the “dose proportionality of mean Cmax” value ([2]; both forms of administration, ANOVA and power model) was “increased proportionally with dose”. The Cmax [2, 4] was 310 ng/mL, the half-life [2, 4] was 3.37 h and the Cmax [2, 5] was 524 ng/mL. The half-life [2, 5] was 4.97 h, the Cmax [2, 6] was 720 ng/mL and the half-life [2, 6] was 5.82 h. The Cmax [2, 7] was 382 ng/mL, the half-life [2, 7] was 6.22 h and the bioavailability ([2]; oral, data from all cohorts combined, read-out: mean bioavailability) was 89%. For the same molecule, the Cmax ([2]; po, 10 mg, PO 10 mg, mean) was 124 ng/mL, the half-life ([2]; po, 10 mg, PO 10 mg, mean) was 3.94 h and the Cmax ([2]; po, 15 mg, PO 15 mg, mean) was 201 ng/mL. It also gave a half-life ([2]; po, 15 mg, PO 15 mg, mean) of 4.65 h, a Cmax ([2]; po, 20 mg, PO 20 mg, mean) of 255 ng/mL and a half-life ([2]; po, 20 mg, PO 20 mg, mean) of 5.49 h. For the same molecule, the bioavailability ([2]; po, data from all cohorts combined, read-out: absolute oral bioavailability, range) was 42 to 132%, the bioavailability ([2]; PO 10 mg (cohort 1), mean, read-out: Bioavailability) was 102% and the bioavailability ([2]; PO 15 mg (cohort 2), mean, read-out: Bioavailability) was 80%. For the same molecule, the bioavailability ([2]; PO 20 mg (cohort 3), mean, read-out: Bioavailability) was 85%, the “tolerability of the intravenous formulation” value (healthy human volunteers; 5 mg IV over 15 minutes) was “well tolerated” and the “severity of treatment-emergent adverse events” value (healthy human volunteers; characterized by the investigator) was “mild in severity”. For the same molecule, the “time for all subjects to return to baseline values after drug administration” value (healthy human volunteers; in vivo) was ≤ 6 h, the “time point of observed maximum baclofen concentration” value ([3]; 5 mg IV formulation) was 5 min and the “AUC0-∞/Dose” value ([3]; 5 mg IV, mean ± SD) was 141 ± 33 ng·h/mL/mg. For the same molecule, the “AUC0-∞/Dose” value ([3]; 10 mg oral, mean ± SD) was 102 ± 23 ng·h/mL/mg, the T1/2 ([3]; 10 mg oral, mean ± SD) was 4.03 ± 0.73 h and the half-life ([3]; human, plasma, iv, 5 mg, 5 mg IV, mean ± SD) was 4.52 h. It also gave a bioavailability ([3]; human, plasma, oral, 10 mg, 10 mg oral tablet, absolute, vs 5 mg IV, mean ± SD) of 74%, a half-life ([3]; human, plasma, po, 10 mg, 10 mg oral, mean ± SD) of 4 h and an AUC(0-inf) [3, 8] of 707 ± 166 ng·h/mL. The AUC(0-t) [3, 8] was 593 ± 111 ng·h/mL, the AUC(0-inf) [3, 9] was 1020 ± 232 ng·h/mL and the AUC(0-t) [3, 9] was 878 ± 199 ng·h/mL. The Tmax ([3]; human, plasma, 10 mg oral, median (min, max)) was 1 h, the Cmax ([3]; human, 5 mg IV over 15 minutes, plasma, mean ± SD, 12 volunteers) was 310 ng/mL and the Cmax ([3]; human, 10 mg oral tablet, plasma, mean ± SD) was 174 ng/mL.
